Assays:
[1] = system: pERK1/2(THR202/TYR204) level in AsPC-1 cell line; assay: KRAS G12D pERK assay in AsPC-1 cells (HTRF); assay type: cell-based
Procedure: AsPC-1 cell line was used in this study. Cells were maintained in RPMI-1640 supplemented with 10% fetal bovine serum (Thermo Fisher), 50 units/ml, penicillin and streptomycin (Thermo Fisher) and kept at 37° C. in a humidified atmosphere of 5% CO2 in air. Cells were reinstated from frozen stocks that were laid down within 30 passages from the original cells purchased. 30000 cells per well were seeded into a 96-well plate and incubated overnight. Cells were treated with a 10-point dilution series. The final compound concentration is from 0 to 10 μM. After 2 h compound treatment, cells were lysed, and the pERK1/2(THR202/TYR204) level in the cell lysates was detected by HTRF kit (Cisbio). In brief, a total of 16 μL of cell lysate from each well of a 96-well plate was transferred to a 384-well white assay plate. Lysate from each well was incubated with 2 μL of Eu3+-cryptate (donor) labeled anti-phospho-ERK1/2 and 2 μL of D2 (acceptor) labeled anti-phospho-ERK1/2 antibodies (Cisbio) overnight in dark at room temperature. When the donor and acceptor are in close proximity, excitation of the donor with laser triggers a Fluorescence Resonance Energy Transfer (FRET) towards the acceptor, which in turn fluoresces at 655 nm wavelength. FRET signals were measured using a PHERAstar FSX reader (BMG Labtech). IC50 determination was performed by fitting the curve of percent inhibition versus the log of the inhibitor concentration using Dotmatics.

[2] = system: pERK1/2(THR202/TYR204) level in SW620 cell line; assay: KRAS G12V pERK assay in SW620 cells (HTRF); assay type: cell-based
Method in brief: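 SW620 cells were treated for 2 h with a 10-point dilution series (final 0–10 μM) after overnight seeding. Lysates were then incubated overnight at room temperature with Eu3+-cryptate and acceptor anti-phospho-ERK1/2 antibodies, and HTRF was read at 655 nm. IC50 was fitted from percent inhibition versus log concentration.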

[3] = molecular target: GST-tagged GDP-loaded KRAS G12D (amin acids 1-188) (Homo sapiens, UniProt P01116, G12D); assay: KRAS G12D probe displacement assay (TR-FRET); assay type: binding; conditions: Table 5; KRAS G12D 0.5 nM, biotinylated probe 2 4 nM
Sequence of GST-tagged GDP-loaded KRAS G12D (amin acids 1-188) (P01116 1-188 isoform P01116-2 G12D): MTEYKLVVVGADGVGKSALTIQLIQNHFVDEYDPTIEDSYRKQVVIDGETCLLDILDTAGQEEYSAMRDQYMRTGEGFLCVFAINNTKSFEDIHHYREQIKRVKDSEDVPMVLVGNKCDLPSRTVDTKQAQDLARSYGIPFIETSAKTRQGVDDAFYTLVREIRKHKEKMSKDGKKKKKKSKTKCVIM
Procedure: Plates are incubated at 24° C. for 1 hr.

[4] = molecular target: GST-tagged GDP-loaded KRAS G12V (amino acids 1-169) (Homo sapiens, UniProt P01116, G12V); assay: KRAS G12V probe displacement assay (TR-FRET); assay type: binding; conditions: Table 4; KRAS G12V 2 nM, biotinylated probe 2 2.5 nM
Sequence of GST-tagged GDP-loaded KRAS G12V (amino acids 1-169) (P01116 1-169 isoform P01116-2 G12V): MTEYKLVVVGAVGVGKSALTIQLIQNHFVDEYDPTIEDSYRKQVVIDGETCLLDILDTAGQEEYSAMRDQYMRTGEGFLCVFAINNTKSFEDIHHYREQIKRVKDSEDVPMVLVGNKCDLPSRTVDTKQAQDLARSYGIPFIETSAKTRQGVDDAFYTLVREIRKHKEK
Procedure: Plates are incubated at 24 °C for 1 hr. […] After 1 hr incubation at 24° C.

[5] = Homo sapiens, ASPC1, Table 5, 2 h compound treatment
[6] = Homo sapiens, SW-620, Table 4, 2 hrs compound treatment

SMILES	IC50 [1, 5] [nM]	IC50 [2, 6] [nM]	IC50 [3] [nM]	IC50 [4] [nM]	IC50 ([1]; Table 5, 2 h compound treatment) [nM]	IC50 ([2]; Table 4, 2 hrs compound treatment) [nM]
CN1c2nc(OC[C@@]34CCCN3C[C@H](F)C4)nc3c(F)c(-c4cc(N)cc(Cl)c4C(F)(F)F)nc(c23)OC[C@@H]2COC[C@H]21 (single isomer, unassigned) [Example 68 Isomer 2]	6.9	1.4	0.14	0.51		
CN1c2nc(OC[C@@]34CCCN3C[C@H](F)C4)nc3c(F)c(-c4cc(N)cc(Cl)c4C(F)(F)F)nc(c23)OCCC12CC2 [Example 31, 3-chloro-5-(4-fluoro-2-(((2R,7aS)-2-fluorotetrahydro-1H-pyrrolizin-7a(5H)-yl)methoxy)-11-methyl-8,9-dihydro-11H-7-oxa-1,3,6,11-tetraazaspiro[cycloocta[de]naphthalene-10,1′-cyclopropan]-1(11a), 2,3a, 4,6-pentaen-5-yl)-4 (trifluoromethyl)aniline]	40	32	0.43	0.51		
CN1CCCOc2cc(-c3ccc(F)c4sc(N)c(C#N)c34)c(F)c3nc(OC[C@@]45CCCN4C[C@H](F)C5)nc1c23 [Example 2, 2-amino-7-fluoro-4-(11-fluoro-2-(((2R,7aS)-2-fluorotetrahydro-1H-pyrrolizin-7a(5H)-yl)methoxy)-4-methyl-4.5,6,7-tetrahydro-[1,5]oxazocino[4,3,2-de]quinazolin-10-yl)benzo[b]thiophene-3-carbonitrile]	594	255	6.2	3.6		
C[C@@H]1C[C@H](C)Oc2nc(-c3cc(N)cc(Cl)c3C(F)(F)F)c(F)c3nc(OC[C@@]45CCCN4C[C@H](F)C5)nc(c23)N1C [Example 34, 3-chloro-5-((8S,10R)-4-fluoro-2-(((2R,7aS)-2-fluorotetrahydro-1H-pyrrolizin-7a(5H)-yl)methoxy)-8,10,11-trimethyl-8,9,10,11-tetrahydro-7-oxa-1,3,6,11-tetraazacycloocta[de]naphthalen-5-yl)-4-(trifluoromethyl)aniline]	25	13	0.59	0.59		
CN1c2nc(OC[C@@]34CCCN3C[C@H](F)C4)nc3c(F)c(-c4cc(N)cc(Cl)c4C(F)(F)F)nc(c23)OCCC12COC2 [Example 30, 3-chloro-5-(4-fluoro-2-(((2R,7aS)-2-fluorotetrahydro-1H-pyrrolizin-7a(5H)-yl)methoxy)-11-methyl-8,9-dihydro-11H-7-oxa-1,3,6,11-tetraazaspiro[cycloocta[de]naphthalene-10,3′-oxetan]-1(11a), 2,3a, 3a^1(6a), 5-pentaen-5-yl)-4-(trifluoromethyl)aniline]			0.31	0.63	11	13
CN1c2nc(OC[C@@]34CCCN3C[C@H](F)C4)nc3c(F)c(-c4cc(N)cc(Cl)c4C(F)(F)F)nc(c23)O[C@@H]2CCOC[C@H]21 [Example 51, 3-chloro-5-((7aR,11aR)-4-fluoro-2-(((2R,7aS)-2-fluorotetrahydro-1H-pyrrolizin-7a(5H)-yl)methoxy)-12-methyl-7a, 8,11a, 12-tetrahydro-9H, 11H-7,10-dioxa-1,3,6,12-tetraazapleiaden-5-yl)-4-(trifluoromethyl)aniline]	30	9.3	0.28	0.5		
Cc1cc(N)cc(-c2nc3c4c(nc(OC[C@@]56CCCN5C[C@H](F)C6)nc4c2F)N(C)[C@@H]2COCC[C@H]2O3)c1C(F)(F)F [Example 61, 3-((7aR,11aR)-4-fluoro-2-(((2R,7aS)-2-fluorotetrahydro-1H-pyrrolizin-7a(5H)-yl)methoxy)-12-methyl-7a, 8,11a, 12-tetrahydro-9H, 11H-7,10-dioxa-1,3,6,12-tetraazapleiaden-5-yl)-5-methyl-4-(trifluoromethyl)aniline]	23	22	0.57	0.8		
C=C1CN2CCC[C@@]2(COc2nc3c4c(nc(-c5cc(N)cc(Cl)c5C(F)(F)F)c(F)c4n2)O[C@H]2COCC[C@@H]2N3C)C1 [Example 62, 3-chloro-5-((7aR,11aS)-4-fluoro-12-methyl-2-(((S)-2-methylenetetrahydro-1H-pyrrolizin-7a(5H)-yl)methoxy)-7a, 8,10,11,11a, 12-hexahydro-7,9-dioxa-1,3,6,12-tetraazapleiaden-5-yl)-4-(trifluoromethyl)aniline]	12	5.5	0.23	0.25		
CN1CCC[C@@]2(COc3nc4c5c(nc(-c6cc(N)cc(Cl)c6C(F)(F)F)c(F)c5n3)O[C@H]3COCC[C@@H]3N4C)CCC[C@@H]12 [Example 64, 3-chloro-5-((7aR,11aS)-4-fluoro-12-methyl-2-(((4aS,7aR)-1-methyloctahydro-4aH-cyclopenta[b]pyridin-4a-yl)methoxy)-7a, 8,10,11,11a, 12-hexahydro-7,9-dioxa-1,3,6,12-tetraazapleiaden-5-yl)-4-(trifluoromethyl)aniline]	7.9	6.4	0.1	0.25		
C#Cc1c(F)ccc2cc(O)cc(-c3nc4c5c(nc(OC[C@@]67CCCN6C[C@H](F)C7)nc5c3F)N(C)CCCO4)c12 [Example 10, 5-ethynyl-6-fluoro-4-(4-fluoro-2-(((2R,7aS)-2-fluorotetrahydro-1H-pyrrolizin-7a(5H)-yl)methoxy)-11-methyl-8,9,10,11-tetrahydro-7-oxa-1,3,6,11-tetraazacycloocta[de]naphthalen-5-yl)naphthalen-2-ol]	123	103	1.1	1.4		
CCN1c2nc(OC[C@@]34CCCN3C[C@H](F)C4)nc3c(F)c(-c4cc(N)cc(Cl)c4C(F)(F)F)nc(c23)OCCC12COC2 [Example 35, 3-chloro-5-(11-ethyl-4-fluoro-2-(((2R,7aS)-2-fluorotetrahydro-1H-pyrrolizin-7a(5H)-yl)methoxy)-8,9-dihydro-11H-7-oxa-1,3,6,11-tetraazaspiro[cycloocta[de]naphthalene-10,3′-oxetan]-1(11a), 2,3a, 3a^1(6a), 5-pentaen-5-yl)-4-(trifluoromethyl)aniline]	22	26	0.33	0.47		
CN1c2nc(OC[C@@]34CCCN3C[C@H](F)C4)nc3c(F)c(-c4cc(N)cc(Cl)c4C(F)(F)F)nc(c23)O[C@H]2COCC[C@@H]21 [Example 49, 3-chloro-5-((7aR,11aS)-4-fluoro-2-(((2R,7aS)-2-fluorotetrahydro-1H-pyrrolizin-7a(5H)-yl)methoxy)-12-methyl-7a, 8,10,11,11a, 12-hexahydro-7,9-dioxa-1,3,6,12-tetraazapleiaden-5-yl)-4-(trifluoromethyl)aniline]	7.6	8.4	0.27	0.54		
Cc1cc(N)cc(-c2nc3c4c(nc(OC[C@]56CCC[C@H]5N(C)CCC6)nc4c2F)N(C)[C@H]2CCOC[C@@H]2O3)c1C(F)(F)F [Example 65, 3-((7aR,11aS)-4-fluoro-12-methyl-2-(((4aS,7aR)-1-methyloctahydro-4aH-cyclopenta[b]pyridin-4a-yl)methoxy)-7a, 8,10,11,11a, 12-hexahydro-7,9-dioxa-1,3,6,12-tetraazapleiaden-5-yl)-5-methyl-4-(trifluoromethyl)aniline]	17	8.9	0.27	0.47		

Source: patent US20240262848A1, “HETEROCYCLIC COMPOUNDS, COMPOSITIONS THEREOF, AND METHODS OF TREATMENT THEREWITH” (BeiGene, Ltd., priority 2022, published 2024)
